Measured values: ChEMBL document CHEMBL1828530, “Quinonoid and phenazine compounds: synthesis and evaluation against H37Rv, rifampicin and isoniazid-resistance strains of Mycobacterium tuberculosis” (Eur J Med Chem, 2011)
In brackets after ≈: the same amount, converted by molar mass.

Experiments:
[1] = system: Mycobacterium tuberculosis; assay: Antitubercular activity against rifampicin-resistant Mycobacterium tuberculosis ATCC 35338 harboring His-526-Tri mutation in rpoB gene after 9 days by resazurin reduction assay; assay type: functional
[2] = system: Mycobacterium tuberculosis; assay: Antitubercular activity against isoniazid-resistant Mycobacterium tuberculosis ATCC 35822 harboring Ser-315-Tri mutation in katG gene after 9 days by resazurin reduction assay; assay type: functional

SMILES: CO[C@H]1/C=C/O[C@@]2(C)Oc3c(C)c(O)c4c(O)c(c(/C=N/N5CCN(C)CC5)c(O)c4c3C2=O)NC(=O)/C(C)=C\C=C\[C@H](C)[C@H](O)[C@@H](C)[C@@H](O)[C@@H](C)[C@H](OC(C)=O)[C@@H]1C [RIFAMPIN]
- MIC [1]: 2.43 µM (≈ 2 µg/mL)

SMILES: CC(C)CCC1=C(O)C(=O)C2=C(CCCC2)C1=O
- MIC [1]: 50.4 µM (≈ 12.5 µg/mL)
- MIC [2]: 100.8 µM (≈ 25 µg/mL)

SMILES: CC(C)=CC1=C(O)C(=O)c2ccccc2C1=O
- MIC [1]: 13.7 µM (≈ 3.13 µg/mL)
- MIC [2]: 438.6 µM (≈ 100 µg/mL)

SMILES: CC(C)CCc1c2[nH]c3ccccc3nc-2c2ccccc2c1=O
- MIC [1]: 39.5 µM (≈ 12.5 µg/mL)
- MIC [2]: 39.5 µM (≈ 12.5 µg/mL)

SMILES: CC(C)CC1=C(O)C(=O)C2=C(CCCC2)C1=O
- MIC [1]: 53.35 µM (≈ 12.5 µg/mL)
- MIC [2]: 106.7 µM (≈ 25 µg/mL)

SMILES: CCCC1=C(OC2(CCC)C(=O)c3ccccc3-c3nc4ccccc4nc32)C(=O)c2ccccc2C1=O (stereo not drawn)
- MIC [1]: >198.8 µM
- MIC [2]: >198.8 µM

SMILES: NNC(=O)c1ccncc1 [ISONIAZID]
- MIC [2]: 1.45 µM (≈ 0.199 µg/mL)

SMILES: CCCC1=C(O)C(=O)C2=C(CCCC2)C1=O
- MIC [1]: 113.5 µM (≈ 25 µg/mL)
- MIC [2]: 113.5 µM (≈ 25 µg/mL)

SMILES: CC(C)CC1=C(O)C(=O)c2ccccc2C1=O
- MIC [1]: 108.7 µM (≈ 25 µg/mL)
- MIC [2]: 217.4 µM (≈ 50.1 µg/mL)

SMILES: CC(C)=CCC1=C(OC2(CC=C(C)C)C(=O)c3ccccc3-c3nc4ccccc4nc32)C(=O)c2ccccc2C1=O (stereo not drawn)
- MIC [1]: 180.2 µM (≈ 99.9 µg/mL)
- MIC [2]: >180.2 µM

SMILES: CC(C)CC1=C(OC2(CC(C)C)C(=O)C3=C(CCCC3)c3nc4ccccc4nc32)C(=O)C2=C(CCCC2)C1=O (stereo not drawn)
- MIC [1]: 46.4 µM (≈ 25 µg/mL)
- MIC [2]: 46.4 µM (≈ 25 µg/mL)

SMILES: CCCC1=C(O)C(=O)c2ccccc2C1=O
- MIC [1]: 231.25 µM (≈ 50 µg/mL)
- MIC [2]: 462.5 µM (≈ 100 µg/mL)

SMILES: C=CCC1=C(OC2(CC=C)C(=O)c3ccccc3-c3nc4ccccc4nc32)C(=O)c2ccccc2C1=O (stereo not drawn)
- MIC [1]: >200.8 µM
- MIC [2]: >200.8 µM

SMILES: CC(C)CC1=C(OC2(CC(C)C)C(=O)c3ccccc3-c3nc4ccccc4nc32)C(=O)c2ccccc2C1=O (stereo not drawn)
- MIC [1]: >188.3 µM
- MIC [2]: >188.3 µM

SMILES: CC(C)=CCC1=C(O)C(=O)c2ccccc2C1=O [LAPACHOL]
- MIC [1]: 206.6 µM (≈ 50.1 µg/mL)
- MIC [2]: 413.2 µM (≈ 100 µg/mL)

SMILES: CC(C)Cc1c2[nH]c3ccccc3nc-2c2ccccc2c1=O
- MIC [1]: >331.1 µM
- MIC [2]: >331.1 µM

SMILES: CC(C)CCC1=C(OC2(CCC(C)C)C(=O)C3=C(CCCC3)c3nc4ccccc4nc32)C(=O)C2=C(CCCC2)C1=O (stereo not drawn)
- MIC [1]: 176.4 µM (≈ 100 µg/mL)
- MIC [2]: >176.4 µM

SMILES: CC(C)CCC1=C(OC2(CCC(C)C)C(=O)c3ccccc3-c3nc4ccccc4nc32)C(=O)c2ccccc2C1=O (stereo not drawn)
- MIC [1]: >178.9 µM
- MIC [2]: >178.9 µM

SMILES: CCCC1=C(OC2(CCC)C(=O)C3=C(CCCC3)c3nc4ccccc4nc32)C(=O)C2=C(CCCC2)C1=O (stereo not drawn)
- MIC [1]: 195.7 µM (≈ 99.9 µg/mL)
- MIC [2]: >195.7 µM

SMILES: CC(C)CCC1=C(O)C(=O)c2ccccc2C1=O
- MIC [1]: 205 µM (≈ 50.1 µg/mL)
- MIC [2]: 205 µM (≈ 50.1 µg/mL)

SMILES: C=CCc1c2[nH]c3ccccc3nc-2c2ccccc2c1=O
- MIC [1]: 174.8 µM (≈ 50.1 µg/mL)
- MIC [2]: 43.7 µM (≈ 12.5 µg/mL)

SMILES: CC(C)CCc1c2[nH]c3ccccc3nc-2c2c(c1=O)CCCC2
- MIC [1]: 39.1 µM (≈ 12.5 µg/mL)
- MIC [2]: >312.5 µM

SMILES: CC(C)Cc1c2[nH]c3ccccc3nc-2c2c(c1=O)CCCC2
- MIC [1]: >326.8 µM
- MIC [2]: >326.8 µM

SMILES: C=CCC1=C(O)C(=O)c2ccccc2C1=O
- MIC [1]: 116.8 µM (≈ 25 µg/mL)
- MIC [2]: 467.3 µM (≈ 100 µg/mL)

SMILES: CC(C)=Cc1c2[nH]c3ccccc3nc-2c2ccccc2c1=O
- MIC [1]: 83.3 µM (≈ 25 µg/mL)
- MIC [2]: 83.3 µM (≈ 25 µg/mL)
